From patent US7521570B2, “Medicinal compositions containing 6-hydroxybenzbromarone or salts thereof” (Torli Pharmaceutical Co., Ltd., priority 2004, dated 2009)
Like-named read-outs stand apart in the source and are kept apart here.

Columns and labels:
[1] = Clinical pharmacokinetic test, single dose of benzbromarone, plasma and urine by LC/MS/MS; type: in vivo, human; conditions: for detection in the urine: till 72 hours; for concentration at 72 h: male, human, po, 100 mg as benzbromarone
Protocol: Next, clinical pharmacokinetic test was carried out for a case where single dose of benzbromarone was given to healthy male adult subjects.
Results of plasma concentration of 6-hydroxybenzbromarone are shown in FIG. 3 and results of urine concentration of the same are shown in FIG. 4, respectively. The vertical axis of FIG. 3 represents plasma level (ng/mL) and the horizontal axis represents time elapsed (hour). […] The vertical axis of FIG. 4 represents concentration in the urine (ng/mL) and the horizontal axis represents time elapsed (hour).

[2] = target: T1, xanthine oxidase derived from bovine milk (Bos taurus, UniProt P80457); assay: Xanthine oxidase inhibitory activity (absorbance 292 nm, xanthine substrate); type: biochemical; conditions: for IC50: 100 μM xanthine, 37° C., pH 7.4, read-out: IC50 level, xanthine oxidase
T1 construct: xanthine oxidase derived from bovine milk; from tissue; host or cells: bovine milk
T1 sequence (P80457 whole entry): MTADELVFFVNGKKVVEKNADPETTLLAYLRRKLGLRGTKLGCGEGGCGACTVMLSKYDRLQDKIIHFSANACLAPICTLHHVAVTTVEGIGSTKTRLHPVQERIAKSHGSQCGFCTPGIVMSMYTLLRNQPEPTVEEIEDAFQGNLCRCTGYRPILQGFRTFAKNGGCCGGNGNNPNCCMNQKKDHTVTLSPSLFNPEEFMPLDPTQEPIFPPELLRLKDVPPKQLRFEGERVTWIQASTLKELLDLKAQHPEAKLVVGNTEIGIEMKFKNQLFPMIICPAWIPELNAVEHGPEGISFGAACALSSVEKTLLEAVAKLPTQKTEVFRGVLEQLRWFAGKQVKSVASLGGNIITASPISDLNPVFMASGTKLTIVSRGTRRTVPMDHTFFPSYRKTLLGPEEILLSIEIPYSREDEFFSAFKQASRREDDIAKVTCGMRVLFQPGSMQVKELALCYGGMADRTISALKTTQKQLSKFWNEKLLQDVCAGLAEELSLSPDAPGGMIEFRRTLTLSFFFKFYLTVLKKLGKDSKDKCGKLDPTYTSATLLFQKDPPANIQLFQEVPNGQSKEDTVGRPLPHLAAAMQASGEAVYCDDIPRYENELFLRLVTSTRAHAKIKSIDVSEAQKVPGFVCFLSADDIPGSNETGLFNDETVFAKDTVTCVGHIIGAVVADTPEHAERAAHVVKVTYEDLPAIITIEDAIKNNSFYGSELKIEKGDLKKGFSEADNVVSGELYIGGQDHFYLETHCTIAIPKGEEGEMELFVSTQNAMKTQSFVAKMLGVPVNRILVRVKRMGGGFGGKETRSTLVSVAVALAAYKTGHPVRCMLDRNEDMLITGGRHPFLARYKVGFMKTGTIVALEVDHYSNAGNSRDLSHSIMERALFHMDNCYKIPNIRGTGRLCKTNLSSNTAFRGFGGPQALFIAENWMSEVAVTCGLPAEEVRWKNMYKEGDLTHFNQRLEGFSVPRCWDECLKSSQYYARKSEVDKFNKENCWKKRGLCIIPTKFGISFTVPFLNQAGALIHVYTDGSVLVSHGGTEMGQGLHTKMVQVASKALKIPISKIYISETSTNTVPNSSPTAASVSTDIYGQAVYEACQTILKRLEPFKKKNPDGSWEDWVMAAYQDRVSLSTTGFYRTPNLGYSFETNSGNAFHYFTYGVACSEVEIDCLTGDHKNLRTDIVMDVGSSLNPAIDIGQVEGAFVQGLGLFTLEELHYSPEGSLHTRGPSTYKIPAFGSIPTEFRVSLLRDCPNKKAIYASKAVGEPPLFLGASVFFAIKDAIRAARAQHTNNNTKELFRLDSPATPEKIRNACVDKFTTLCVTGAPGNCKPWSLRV
Protocol: Subsequently, xanthine oxidase inhibitory activity of 6-hydroxybenzbromarone was investigated. Activity of xanthine oxidase derived from bovine milk was checked as follows: Using 100 μM of xanthine as the substrate, and using a system for measuring chronologically the absorbance (292 nm) of […] generated at 37° C. in 1/15 M phosphate buffer solution (pH 7.4) in which 0.1 M phosphate buffer solution was diluted by half volume of water, inhibitory activity of 6-hydroxybenzbromarone or of oxypurinol that is a metabolic product of allopurinol was measured to analyze IC50.
Activity of xanthine oxidase derived from bovine milk was analyzed as follows.

[3] = Pharmacokinetic test of single dose in rats; type: in vivo; conditions: single dose of 100 mg/kg; for Cmax / AUC(0-t): rat, in vivo, po; for AUC(0-t): read-out: AUC0-24hr
[4] = target: T2, human OAT3 (human organic anion transporter 3) (Homo sapiens, UniProt Q8TCC7); assay: Inhibition of 3H-estrone sulfate uptake by OAT3 in S2 cells; type: cell-based; conditions: for Ki: OAT3, 3H-estrone sulfate uptake
T2 construct: expressed in transfected cells; host or cells: S2 cells expressing OAT3
T2 sequence (Q8TCC7 1-542): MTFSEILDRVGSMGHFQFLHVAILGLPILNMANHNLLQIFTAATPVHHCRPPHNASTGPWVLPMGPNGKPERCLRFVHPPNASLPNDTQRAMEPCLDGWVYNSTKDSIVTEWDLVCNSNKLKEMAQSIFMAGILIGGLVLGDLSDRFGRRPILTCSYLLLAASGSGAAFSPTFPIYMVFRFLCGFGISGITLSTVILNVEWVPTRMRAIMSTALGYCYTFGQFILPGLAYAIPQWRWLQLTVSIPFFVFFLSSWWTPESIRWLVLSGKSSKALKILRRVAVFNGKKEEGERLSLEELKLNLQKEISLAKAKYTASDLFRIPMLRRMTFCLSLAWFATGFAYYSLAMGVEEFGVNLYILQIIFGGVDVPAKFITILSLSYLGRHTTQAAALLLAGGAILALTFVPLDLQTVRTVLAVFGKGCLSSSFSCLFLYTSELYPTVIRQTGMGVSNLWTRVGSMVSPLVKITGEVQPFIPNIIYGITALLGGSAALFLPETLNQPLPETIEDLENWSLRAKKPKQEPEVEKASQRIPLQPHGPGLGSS
Protocol: OAT3 is an organic anion transporter which is present at basal-lateral (vascular side) membrane of the proximal renal tubule and takes organic anion such as uric acid into cells, and estrone sulfate is known as the typical substrate of this.
The horizontal axis of FIG. 8 represents 1/S (L/mmol) and the vertical axis represents 1/V (mg protein/μM/min), black square (▪) denotes 6-hydroxybenzbromarone (0.3 μM) case and white square (□) denotes control.

[5] = target: T3, human OAT4 (human organic anion transporter 4) (Homo sapiens, UniProt Q9NSA0); assay: Inhibition of 3H-estrone sulfate uptake by OAT4 in S2 cells; type: cell-based; conditions: S2 cells expressing OAT4
T3 sequence (Q9NSA0 1-550): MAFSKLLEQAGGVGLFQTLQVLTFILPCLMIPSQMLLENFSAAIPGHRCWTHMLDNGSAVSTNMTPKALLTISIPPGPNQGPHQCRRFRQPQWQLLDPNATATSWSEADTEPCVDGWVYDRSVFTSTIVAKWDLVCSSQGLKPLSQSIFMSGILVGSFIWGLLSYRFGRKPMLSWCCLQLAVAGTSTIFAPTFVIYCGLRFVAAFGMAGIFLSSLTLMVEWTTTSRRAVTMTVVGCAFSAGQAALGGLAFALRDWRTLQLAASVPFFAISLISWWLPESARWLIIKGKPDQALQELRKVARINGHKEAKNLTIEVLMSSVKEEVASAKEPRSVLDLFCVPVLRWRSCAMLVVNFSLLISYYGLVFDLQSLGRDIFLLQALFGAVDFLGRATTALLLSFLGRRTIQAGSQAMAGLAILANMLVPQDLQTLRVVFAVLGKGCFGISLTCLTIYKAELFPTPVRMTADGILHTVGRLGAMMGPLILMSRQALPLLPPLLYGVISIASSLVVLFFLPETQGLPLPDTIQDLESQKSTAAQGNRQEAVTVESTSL
Excerpt: OAT4 is an organic anion transporter which is present at luminal side membrane of the proximal renal tubule and takes organic anion such as uric acid into cells, and estrone sulfate is known as the typical substrate of this. […] Results are shown in FIG. 6 in the form of relative value while the amount of uptake of ^3H-estrone sulfate in a case where nothing is present (control) is considered to be 100%.

[6] = target: T4, URAT1 (Homo sapiens, UniProt Q96S37); assay: Inhibition of [14C] uric acid uptake by URAT1 in MDCK-URAT1 cells; type: cell-based; conditions: for IC50: MDCK-URAT1 cells, 100 μM [14C] uric acid
T4 construct: expressed in transfected cells
T4 sequence (Q96S37 1-553): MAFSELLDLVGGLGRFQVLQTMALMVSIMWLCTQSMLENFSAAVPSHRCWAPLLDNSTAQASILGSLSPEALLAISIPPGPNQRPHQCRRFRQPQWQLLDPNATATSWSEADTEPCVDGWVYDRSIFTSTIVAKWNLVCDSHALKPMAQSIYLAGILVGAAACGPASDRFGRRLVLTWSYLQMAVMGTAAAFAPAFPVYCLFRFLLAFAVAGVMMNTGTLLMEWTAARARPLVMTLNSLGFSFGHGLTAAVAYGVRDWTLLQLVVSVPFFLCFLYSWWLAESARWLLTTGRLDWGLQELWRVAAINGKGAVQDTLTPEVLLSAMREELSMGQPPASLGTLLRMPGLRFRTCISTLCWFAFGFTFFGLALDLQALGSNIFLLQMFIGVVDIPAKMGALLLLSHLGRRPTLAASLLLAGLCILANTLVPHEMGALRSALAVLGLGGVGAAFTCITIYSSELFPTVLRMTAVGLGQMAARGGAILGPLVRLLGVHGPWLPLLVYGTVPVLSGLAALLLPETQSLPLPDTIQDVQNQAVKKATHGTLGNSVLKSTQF
Protocol: cDNA of URAT1 was introduced into MDCK cells and stably expressing cells (MDCK-URAT1) were created. […] Experiments are carried out each three times and level of IC50 was analyzed by profit.
cDNA of URAT1 which was integrated into mammal expression vector pcDNA3.1, or pcDNA3.1 was gene transfected to MDCK cells to create stably expressing cells (MDCK-URAT1) and mock cells.
This MDCK-URAT1 was cultured in the minimal essential medium containing 5% fetal bovine serum and 400 μg/mL geneticin, cells were placed in 24-well dish (as many as 10^5 cells per one well) and cultured for 2 days. After that, it was washed with Dulbecco's modified PBS and subjected to pre-incubation in the Dulbecco's modified PBS solution for 10 min.
After that, it was washed with Dulbecco's modified PBS solution three times and cells were collected by 0.1N NaOH. Scintillation cocktail was then added to count dpm of [^14C] uric acid being taken in cells by liquid scintillation counter. Values of IC50 were analyzed by profit.

[7] = healthy male adults, single oral 100 mg benzbromarone

SMILES	AUC in plasma relative to benzbromarone [1, 7]	detection in the urine [1, 7]	concentration at 72 h ([1]; plasma, read-out: plasma concentration 72 hours after administration) [ng/mL]	concentration at 72 h ([1]; urine, read-out: urine concentration 72 hours after administration) [ng/mL]	IC50 [2] [nM]	inhibitory activity of xanthine oxidase relative to oxypurinol ([2]; fraction of that of oxypurinol)	Cmax [3] [ng/mL]	AUC(0-t) [3] [µg·h/mL]	absorption from the digestive tract into bloodstream [3]	inhibitory style at OAT3 ([4]; 3H-estrone sulfate uptake, 0.3 μM, FIG. 8)	Ki ([4]; FIG. 8, read-out: Ki-value (competitive inhibition)) [nM]	Ki ([4]; FIG. 8, read-out: Ki-value (noncompetitive inhibition)) [nM]	IC50 ([4]; S2 cells expressing OAT3, 3H-estrone sulfate (50 nmol/L)) [nM]	IC50 [5] [nM]	IC50 ([6]; 37° C. 2 min, three experiments, read-out: level of IC50, uric acid uptake by URAT1, after three times experiments) [nM]	IC50 ([6]; single experiment shown in figure, read-out: level of IC50, uric acid uptake by URAT1 (FIG. 1 / FIG. 2)) [nM]	intensity of uric acid uptake inhibition relative to benzbromarone ([6]; fraction of that of benzbromarone)	time after administration at which eliminated from plasma [1, 7] [h]	IC50 [4] [nM]
CCc1oc2cc(O)ccc2c1C(=O)c1cc(Br)c(O)c(Br)c1 [6-hydroxybenzbromarone, 2-ethyl-6-hydroxy-3-(3′,5′-dibromo-4′-hydroxy-benzoyl)-benzofuran]	twice or higher level than that of benzbromarone	high level	~110	~170	68000	approximately ⅕	34600	291	absorbed favorably	mixed type of competitive inhibition and noncompetitive inhibition	1000	700	300	3200	200 ± 60	130	approximately ⅙	–	–
CCc1oc2ccccc2c1C(=O)c1cc(Br)c(O)c(Br)c1 [benzbromarone]	–	detected little in the urine	–	–	–	–	90200	887	–	–	–	–	–	5400	–	–	–	48	700
O=c1[nH]c(=O)c2c[nH]nc2[nH]1 [oxypurinol, reference compound]	–	–	–	–	13000	–	–	–	–	–	–	–	–	–	–	–	–	–	–
